Results: ChEMBL document CHEMBL1201862, “PubChem BioAssay data set” (2004)
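Results reflect a 48-hour exposure of cells in 96-well plates to compound at five concentrations. At the GI50, growth is halved.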 Calls of active or inactive are those of the source. Rule as the data show it: active = GI50 up to about 1.1 µM and inactive = higher.

Columns and labels:
Experiment in all cases: DTP human tumour cell line panel, 48 h
[1] = test system: ACHN
[2] = test system: CCRF-CEM
[3] = test system: COLO 205
[4] = test system: EKVX
[5] = test system: HL-60
[6] = test system: HOP-92
[7] = test system: K562
[8] = test system: M14
[9] = test system: MCF7
[10] = test system: MDA-MB-435
[11] = test system: Malme-3M
[12] = test system: NCI-H522
[13] = test system: OVCAR-5
[14] = test system: SK-MEL-5
[15] = test system: SN12C
[16] = test system: SNB-75
[17] = test system: SW-620
[18] = test system: TK-10
[19] = test system: SK-MEL-2

Measured: GI50

CCOC(=O)C(NS(=O)(=O)c1ccccc1)(C(F)(F)F)P(=O)(OCC(C)C)OCC(C)C (configuration not stated)
inactive: [1] > 100 µM | [2] > 100 µM | [3] > 100 µM | [4] > 100 µM | [5] > 100 µM | [6] > 100 µM | [7] > 100 µM | [8] > 100 µM | [9] > 100 µM | [10] > 100 µM | [11] > 100 µM | [12] > 100 µM | [13] > 100 µM | [14] > 100 µM | [15] > 100 µM | [16] > 100 µM | [17] > 100 µM | [18] > 100 µM

C/C(=N\N(C)C)C(CN(C)C)C(c1ccccc1)c1c(O)c2ccccc2oc1=O (configuration not stated)
inactive: [1] > 100 µM | [2] > 100 µM | [3] > 100 µM | [4] 68.7 µM | [5] > 100 µM | [6] 70.5 µM | [7] > 100 µM | [8] > 100 µM | [11] > 100 µM | [12] > 100 µM | [13] > 100 µM | [19] > 100 µM | [14] > 100 µM | [15] > 100 µM | [16] 30.3 µM | [17] > 100 µM | [18] > 100 µM

CN(C)CCOC1(Cc2ccc(Cl)cc2Cl)CCC(C(C)(C)C)CC1 (configuration not stated)
inactive: [1] 2.27 µM | [2] 1.88 µM | [3] 1.56 µM | [7] 1.69 µM | [8] 1.54 µM | [9] 2.19 µM | [10] 1.64 µM | [11] 1.73 µM | [12] 2 µM | [13] 1.86 µM | [19] 1.16 µM | [14] 2.36 µM | [15] 1.73 µM | [16] 4.27 µM | [17] 2.4 µM | [18] 1.26 µM

CCCCCc1cc(OC(=O)c2c(O)cc(OC)cc2CCCCC)cc(O)c1C(=O)O
inactive: [1] 17.3 µM | [2] 20.7 µM | [3] 18.2 µM | [4] 19 µM | [5] 24.9 µM | [6] 16.4 µM | [7] 26.8 µM | [8] 20.4 µM | [11] 13 µM | [12] 11.1 µM | [13] 19.1 µM | [19] 16.8 µM | [14] 14.8 µM | [15] 15.9 µM | [16] 17.2 µM | [17] 18.3 µM | [18] 18.6 µM

O=C(Nc1cccc([N+](=O)[O-])c1)C(=O)C(C(=O)c1ccccc1-c1ccccc1)C1OC(=O)c2ccccc21 (configuration not stated)
inactive: [1] 35.6 µM | [2] 22.9 µM | [3] 20 µM | [4] 25.6 µM | [5] 16.2 µM | [6] 13.4 µM | [7] 28 µM | [8] 17.8 µM | [11] 13.6 µM | [12] 11.4 µM | [13] 22 µM | [19] 17.9 µM | [14] 16.2 µM | [16] 22.9 µM | [17] 27.2 µM | [18] 30.4 µM

CCSCN(C)c1nc(N(C)C)nc(N(C)C)n1
inactive: [1] > 100 µM | [2] 48.1 µM | [3] 75.2 µM | [4] > 100 µM | [5] 29.9 µM | [6] 49.2 µM | [7] 46.8 µM | [8] 39.8 µM | [11] 34.3 µM | [12] 35 µM | [13] > 100 µM | [19] > 100 µM | [14] 39.9 µM | [15] 77.6 µM | [16] 59 µM | [17] 35.9 µM | [18] > 100 µM

COC(=O)[C@H]1[C@H](OC(=O)[C@@H](OC)c2ccccc2)ON2CC[C@@H](OC(=O)c3ccccc3)[C@H]12
inactive: [1] 10.3 µM | [2] > 100 µM | [3] > 100 µM | [4] > 100 µM | [5] > 100 µM | [6] 30.3 µM | [7] > 100 µM | [8] > 100 µM | [9] 3.83 µM | [10] > 100 µM | [11] > 100 µM | [12] 2.65 µM | [13] > 100 µM | [19] 48.1 µM | [14] > 100 µM | [15] 78 µM | [16] 29 µM | [18] > 100 µM

CCN(CC)CCCC(C)Nc1ccnc2cc(Cl)ccc12 (configuration not stated) [CHLOROQUINE PHOSPHATE]
inactive: [1] > 85.1 µM | [2] 20.8 µM | [3] 9.38 µM | [4] > 57 µM | [5] 13.3 µM | [6] 15.7 µM | [7] 12.4 µM | [8] 15 µM | [9] 19.1 µM | [10] 16.4 µM | [11] 20.9 µM | [12] 25.8 µM | [13] 25.1 µM | [19] 10 µM | [14] 26.2 µM | [15] 34.9 µM | [16] > 60.5 µM | [17] > 57.4 µM | [18] 37.3 µM

COC(=O)C(=O)C(CC(=O)Nc1cccc(C(F)(F)F)c1)C(=O)OC (configuration not stated)
inactive: [1] > 100 µM | [2] > 100 µM | [3] > 100 µM | [4] > 100 µM | [5] > 100 µM | [6] > 100 µM | [7] > 100 µM | [8] > 100 µM | [11] > 100 µM | [12] > 100 µM | [13] > 100 µM | [19] > 100 µM | [14] > 100 µM | [15] > 100 µM | [16] > 100 µM | [17] > 100 µM | [18] > 100 µM

O=C1OC(C2=CC(=O)c3ccccc3C2=O)C(Cl)=C1Cl (configuration not stated)
inactive: [1] 15.8 µM | [2] 20 µM | [3] 35 µM | [4] 37.8 µM | [5] 35.9 µM | [6] 47 µM | [7] 32.7 µM | [8] 39.3 µM | [9] 20.9 µM | [10] 35.6 µM | [11] 26.5 µM | [12] 15.9 µM | [13] 36.3 µM | [19] 14.1 µM | [14] 31.1 µM | [15] 18.3 µM | [16] 37.2 µM | [17] 35.2 µM | [18] 66.7 µM

CCOC(=O)C(NC(=O)c1cccc(Cl)c1)(Nc1ccc(S(=O)(=O)Nc2cc(C)nc(C)n2)cc1)C(F)(F)F (configuration not stated)
inactive: [1] > 100 µM | [2] > 100 µM | [3] > 100 µM | [4] > 100 µM | [5] > 100 µM | [6] 80.5 µM | [8] > 100 µM | [9] > 100 µM | [10] > 100 µM | [11] > 100 µM | [12] > 100 µM | [13] > 100 µM | [19] > 100 µM | [14] > 100 µM | [15] > 100 µM | [16] > 100 µM | [17] > 100 µM | [18] > 100 µM

CCOP(=O)(OCC)C(C)(C)N(C)/C(F)=N/C(F)(F)F
inactive: [1] > 100 µM | [2] > 100 µM | [3] > 100 µM | [4] > 100 µM | [5] > 100 µM | [6] > 100 µM | [7] > 100 µM | [8] > 100 µM | [9] > 100 µM | [10] > 100 µM | [11] > 100 µM | [13] > 100 µM | [19] > 100 µM | [14] > 100 µM | [15] > 100 µM | [16] > 100 µM | [17] > 100 µM | [18] > 100 µM

CN1N=C(c2ccncc2)OC1c1ccc(Cl)c(Cl)c1 (configuration not stated)
inactive: [1] > 100 µM | [2] 71.6 µM | [3] > 100 µM | [4] > 100 µM | [5] 69.8 µM | [6] > 100 µM | [7] 61.8 µM | [8] > 100 µM | [9] > 100 µM | [10] > 100 µM | [11] > 100 µM | [12] > 100 µM | [13] > 100 µM | [19] > 100 µM | [14] > 100 µM | [15] > 100 µM | [17] > 100 µM | [18] > 100 µM

COc1cc2c(c3c1C=CCO3)C(=O)c1ccccc1C2=O
inactive: [1] 34.2 µM | [2] 22 µM | [3] 19.6 µM | [4] > 100 µM | [5] 19.3 µM | [6] > 100 µM | [7] 32.3 µM | [8] 82 µM | [11] > 100 µM | [12] 29.7 µM | [13] > 100 µM | [19] > 100 µM | [14] 24.7 µM | [15] 43.9 µM | [16] 51.1 µM | [17] 30.4 µM | [18] 50.4 µM

O=c1cc(-c2ccc(O)cc2)n(C2CC2)c2ccccc12
inactive: [1] 2.47 µM | [2] 7.16 µM | [3] 2.64 µM | [5] 19.7 µM | [6] 3.52 µM | [7] 7.87 µM | [8] 6.89 µM | [9] 4.66 µM | [10] 4.83 µM | [12] 3.18 µM | [13] 3.64 µM | [19] 2.77 µM | [14] 6.4 µM | [15] 6.01 µM | [17] 5.05 µM

COc1cc(S(=O)(=O)Nc2nc(-c3ccc(N4C(=O)C(CC(=O)O)SC4c4ccccc4O)cc3)cs2)ccc1Cl (configuration not stated)
inactive: [1] > 100 µM | [3] 83.4 µM | [5] 15.3 µM | [6] 31 µM | [7] 38.2 µM | [8] > 100 µM | [9] 42.5 µM | [10] 87.5 µM | [11] > 100 µM | [12] 85.3 µM | [13] > 100 µM | [19] > 100 µM | [14] 29 µM | [15] > 100 µM | [16] > 100 µM | [17] > 100 µM | [18] > 100 µM
